Source: patent US6998249B1, “Toxicity screening method” (priority 1999, dated 2006)
Read-outs that look alike come from different tables or passages of the source.

Key:
H4IIE cells [1] = assay: Cluster Analysis Toxicity Screening (CATS), combined cell number, GST, MTT and ATP assays; assay type: cell-based
From the text: (§1) The test compounds were received pre-weighed into glass vials. The preparation of 20 millimolar stock solutions was accomplished by adding a sufficient amount of dimethylsulfoxide (DMSO) directly into the vials. These stocks were used to prepare 200 micromolar stock solutions in DMSO. Both the 20 millimolar and 200 micromolar, stocks were used to prepare dosing solutions of 0.05, 0.1, 1.0, 5.0, 10.0, 20.0, 50.0, 100, and 300 micromolar in culture media with a final DMSO concentration of 0.5%. The stocks and dosing solutions were prepared on the day prior to dosing. The solutions were wrapped in foil and stored at 4° C. until the next morning.
(§2) Negative controls of media plus DMSO (0.5%) were included with and without cells. A digitonin (1 mM) treated group was included as a positive control for complete cell death.
(§3) Rat hepatoma derived H4IIE cells were used as the test system. The cells were obtained from ATCC (# CRL-1548) and subcultured in the laboratory. The culture medium used for these cells was Eagle's Minimum Essential Medium (MEM) with 10% Fetal Bovine Serum (FBS) and 10% calf serum. Certified FBS and calf serum were from Gibco Life Technologies.
(§4) 96-well plates were seeded with […] in 200 microliters of media 48 hour prior to dosing. On the morning of the third day after seeding, the test compounds were added to the plates in a 200 microliter volume of medium (DMSO=0.5%).
(§5) In this Example, ketoconazole was used as the test drug. Rat hepatoma cells were seeded into 96-well culture plates and allowed to establish growth for 48 hours. Following this growth phase, the cells were treated with 0, 0.05, 0.1, 1, 5, 10, 20, 50, 100, and 300 micromolar of ketoconazole in growth medium and 0.5% DMSO. […]

H4IIE cells [2] = assay: Cell proliferation (CYQUANT) cell number assay; assay type: cell-based, rat
Method: Cell number in each well was determined with the CYQUANT® cell proliferation kit from Molecular Probes. This assay is based on a DNA-specific binding dye that fluoresces upon interaction with DNA. Conversion to cell number is achieved by comparing sample fluorescence units to a standard curve based on fluorescence units/cell. The assay was performed essentially as described by the manufacturer with the following exceptions: The digitonin (1 mM) or Triton X 100 (1%) was added to the lysis buffer. The lysis buffer was added to the plates immediately after removing the plates from the −80° C. freezer. The plates were shaken for 20 min prior to reading the fluorescence.
Cell number was determined by establishing a calibration curve. In order to obtain fluorescence units (FU) per cell 1×10^6 cells were placed in a tube and centrifuged to a pellet. The pellet was then resuspended in 1 milliliters of a cell lysis buffer containing the DNA binding dye. Thus, one million cells in 1000 milliliters yields a relationship of 1000 cells per microliter of suspension. This provides FU/cell. Cell number for samples was determined by applying the FU obtained to the calibration curve. The percent change relative to controls was determined by dividing the treatment cell number by the control cell number and multiplying by 100.

liver [3] = conditions: humans; cited from earlier work
H4IIE cells [4] = conditions: rat, 24 h
Method: (§9) Measurements of A-GST leakage from cultured cells into the media can be used to assess membrane integrity. This assay is specific for the alpha form of GST that exists at high concentrations in the cytosol of hepatocytes. An ELISA kit purchased from Biotrin Inc. was used to measure GST.
(§10) On the morning after dosing the cells (approximately 24 hours) the media covering the cells in each well was removed and placed into new 96-well plates with appropriate labeling. These media plates were stored at −80° C. until needed for analysis.
(§11) Leakage of the GST enzyme is determined by collecting the media in which the cells were exposed to the test compound at the end of the 24 hour exposure period. Thus, GST values represent total GST lost over the exposure period. The control for 100% dead or maximum GST release is based on cells treated with 1 mM digitonin at T0. Percent dead cells relative to digitonin treated cells was determined and then subtracted from 100 to yield the percent live cells.

isolated mitochondria = conditions: cited from earlier work
H4IIE cells [5] = assay: MTT mitochondrial function assay; assay type: cell-based, rat
Method: (§6) (3-(4,5-dimethylthiazol-2-yl)-2,5-diphenyl-tetrazolium bromide (MTT). After the media was removed from a plate for GST analysis, the cells remaining in each well were evaluated for their ability to reduce the tetrazolium dye to formazan via mitochondrial dehydrogenase activity. An MTT stock solution was prepared in Earl's Buffered Salt Solution (EBSS) to a final concentration of 5.0 mg/ml. This stock was diluted 10-fold with complete media (0.5 mg/ml) just prior to use and warmed to 37° C. in a water bath. In some instances the MTT powder may be added directly to complete medium to give a final concentration of 0.5-mg/ml. Once the media was removed from all wells 200 microliter, of the 0.5 mg/ml MTT solution was added to each well and the plate was allowed to incubate at 37° C. for 3-4 hours. Color development is linear over this time.
(§7) After the 3-4 hour incubation, all media was removed and the purple formazan product was extracted by adding 200 microliters, of anhydrous isopropanol. The plates were covered with foil and placed on an orbital shaker for 30 min at room temperature. Each well was aspirated with a multi-channel pipette to insure solubilization of the formzan dye and then the plate was centrifuged at 3000 rpms in a Beckman Allegra 6R centrifuge equipped with a GH3.8 rotor to remove insoluble cellular debris. Analyses were performed by transferring 100 microliters, of supernatant to a clean 96-well plate and then reading the sample absorbance at 570 nm and the reference absorbance at 650 nm with a Packard scanning spectrophotometer.
(§8) At the end of the 24 hour exposure period the media was removed and the remaining attached cells were assayed for mitochondrial function. […] Percent control values were determined by dividing the mean absorbance of the treatment group by the mean absorbance of the control group and multiplying by 100.

[6] = MTT mitochondrial function assay; assay type: cell-based, rat; conditions: rat, H4IIE rat hepatoma cells; 24 hour exposure; read-out: TC50 for MTT
Method: as §6, §7, §8

liver [7] = conditions: rats; cited from earlier work
H4IIE cells [8] = assay: ATP assay (ATP-Lite); assay type: cell-based, rat
Method: Cellular Adenosine triphosphate (ATP) was determined with the ATP-Lite kit from Packard Instruments according to the manufacturer's instructions. This assay is based on a reaction between ATP+D-luciferin+oxygen catalyzed by luciferase to yield Oxyluciferin+AMP+PPi+CO2+light. The emitted light is proportional to the amount of ATP present. Rather than a “flash” type signal which has a very short half-life, this assay utilizes a “glow” technology that extends the signal half-life to 5 hours. In addition, a unique cell lysis reagent inhibits endogenous ATPases and therefore stabilizes cellular ATP by preventing its degradation to ADP.. ATP is present in all living cells and declines rapidly upon cell death. In addition, this assay in combination with the MTT assay provides an indicator of mitochondrial activity and the energy status of the cell.
Changes in ATP may be expressed as a percent change relative to controls by dividing the mean treatment luminescence values by the control values and multiplying by 100. An actual amount of ATP can also be determined by including an ATP calibration curve in the assay and then converting the luminescence response to an ATP concentration with the regression coefficients. Finally, it is possible to estimate the amount of ATP produced per cell, by dividing the pmol ATP data by cell number. Typically, cells try to maintain a stable level of ATP and therefore this parameter is not routinely calculated unless information on the stability of the ATP pool is desired.

[9] = Cluster Analysis Toxicity Screening (CATS), combined cell number, GST, MTT and ATP assays; assay type: cell-based; conditions: rat, 24 hour exposure
From the text: as §1, §2, §3, §4, §5

H4IIE cells [10] = assay: Glutathione S-transferase (GST) leakage assay (membrane integrity); conditions: 6 hour exposure
Method: as §9, §10, §11

Structure (SMILES): C[S+](C)[O-] [DMSO, dimethylsulfoxide]
- concentrations with no effects on cell proliferation, MTT and GST (H4IIE cells [1]; rat): below 2%

Structure (SMILES): C[C@@H]1[C@H](O)[C@@H](C)/C=C/C=C/C=C/C=C/C=C/C=C/C=C/[C@H](O[C@@H]2O[C@H](C)[C@@H](O)[C@H](N)[C@@H]2O)C[C@@H]2O[C@](O)(C[C@@H](O)C[C@@H](O)[C@H](O)CC[C@@H](O)C[C@@H](O)CC(=O)O[C@H]1C)C[C@H](O)[C@H]2C(=O)O [amphotericin]
- influence of final DMSO concentration on toxicity (H4IIE cells [1]): No significant differences in toxicity

Structure (SMILES): O=C(N[C@H](CO)[C@H](O)c1ccc([N+](=O)[O-])cc1)C(Cl)Cl [chloramphenical]
- change of TC50 with exposure time (H4IIE cells [1]; time course over a 72 hour exposure period, H4IIE cells): largest shift in TC50 values occurred between 24 and 48 hours

Structure (SMILES): CC(=O)N1CCN(c2ccc(OCC3COC(Cn4ccnc4)(c4ccc(Cl)cc4Cl)O3)cc2)CC1 (centres unmarked) [ketoconazole]
- effect on cell number (H4IIE cells [2]; 24 hour exposure): dose-related reduction in cell number
- sustained plasma concentration resulting in liver toxicity (liver [3]): 30 µM
- concentrations at which not toxic to cells by GST leakage (H4IIE cells [4]): below 300 micromolar
- effect on State III respiration (isolated mitochondria): direct inhibition
- concentration of early toxic effects in MTT assay (H4IIE cells [5]; 24 hour exposure): below 20 micromolar
- effect on MTT (H4IIE cells [5]; 24 hour exposure): reduced
- CC50 at 24 h [6]: 70 µM
- sustained plasma concentration producing hepatic damage (liver [7]): 60 µM
- effect on ATP (H4IIE cells [8]): reduced
- concentration of early toxic effects in ATP assay (H4IIE cells [8]; rat, 24 h): below 20 micromolar
- influence of final DMSO concentration on toxicity (H4IIE cells [1]): No significant differences in toxicity
- Ctox, estimated plasma concentration that would produce toxicity (H4IIE cells [1]; rat, 24 h): 20 µM
- change of TC50 with exposure time (H4IIE cells [1]; rat, 72 h): largest shift in TC50 values occurred between 24 and 48 hours
- CC50 at 24 h ([9]; cell number, ATP, GST, read-out: TC50 for all other endpoints (than MTT)): > 100 µM
- CC50 at 24 h ([9]; H4IIE cells, all parameters, read-out: TC50 values): ≥ 50 µM
- CC50 at 24 h ([9]; H4IIE cells, cell number, GST leakage, MTT, ATP, read-out: TC50, all parameters measured): ≥ 50 µM

Structure (SMILES): CC[C@H]1/C=C/C=C/C[C@@H](C)[C@H](O)[C@@](C)(O)C(=O)[C@@H](C)[C@H](O)[C@@H](C)C(=O)[C@@H](C)[C@H](O)[C@@H](C)/C=C/C(=O)O[C@@H]2[C@H](C)[C@H](CC1)O[C@]1(CC[C@H](C)[C@H](C[C@@H](C)O)O1)[C@H]2C [oligomycin]
- effect on cell number (H4IIE cells [2]; 6 hour exposure): unaffected
- effect on GST leakage (H4IIE cells [10]): unaffected
- effect on MTT (H4IIE cells [5]; 6 hour exposure): significantly reduced
- effect on ATP (H4IIE cells [8]; 6 hour exposure): completely depleted
